Test results taken from BindingDB's records for PubMed 34225181 (University of Electronic Science and Technology of China, 2021).

Test: Inhibition of L1 (unknown origin) using cefazolin as substrate incubated for 5 mins by Agilent UV8453 spectrometric analysis

In the case of `O=C(NNC(=S)S)c1ccccc1O`, the IC50 is reported as 380 nM.
